The results in this text go back to patent US11066414B2, “Cot modulators and methods of use thereof” (Gilead Sciences, Inc., priority 2015, dated 2021).

Read-outs that look alike come from different tables or passages of the source.

One test has as its target Human Cot (Homo sapiens (Human), UniProt P41279). Put plainly: High Throughput Cot Biochemical Assay. The conditions noted are these: Cot HTRF (TR-FRET KinEASE) biochemical assay, 400 μM ATP.
The next test has as its system TNFα. In words: Cot Monocyte TNFα Cell Based Assay.
The mark [1] stands for this setting: Homo sapiens, Monocyte, read-out: EC50 TNF, LPS-stimulated human monocytes, TNFα TR-FRET.
[2] abbreviates: read-out: EC50 TNF, LPS-stimulated human monocytes, TNFα TR-FRET.

Sequence of Human Cot (P41279 30-397): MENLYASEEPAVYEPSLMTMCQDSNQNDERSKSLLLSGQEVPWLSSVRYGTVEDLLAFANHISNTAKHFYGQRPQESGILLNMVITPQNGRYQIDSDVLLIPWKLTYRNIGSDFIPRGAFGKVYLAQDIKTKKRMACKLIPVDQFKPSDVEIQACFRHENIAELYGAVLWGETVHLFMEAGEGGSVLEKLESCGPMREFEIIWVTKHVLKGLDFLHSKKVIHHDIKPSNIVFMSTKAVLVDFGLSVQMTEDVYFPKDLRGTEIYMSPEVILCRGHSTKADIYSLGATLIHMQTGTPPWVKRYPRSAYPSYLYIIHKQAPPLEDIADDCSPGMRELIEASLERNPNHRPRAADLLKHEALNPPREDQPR

What is called IC50 is the concentration needed to halve the response being measured. The EC50 is the concentration that produces a half-maximal response. As for `Cn1ccc2c([C@H](Nc3cc(C#N)c4ncc(C#N)c(NCC(C)(C)C(F)(F)F)c4c3)c3cn(C4(C(F)F)CC4)nn3)cccc2c1=O` [Example 838, (S)-6-(((1-(1-(difluoromethyl)-cyclopropyl)-1H-1,2,3-triazol-4-yl)(2-methyl-1-oxo-1,2-dihydroisoquinolin-5-yl)methyl)amino)-4-((3,3,3-trifluoro-2,2-dimethylpropyl)-amino)quinoline-3,8-dicarbonitrile], at Human Cot (IC50 HTRF), the 50% inhibitory concentration (IC50) was found to be 3 nM. Besides, in the test on TNFα (setting [1]), the 50% effective concentration (EC50) worked out at 84 nM.
`Cc1nc(F)ccc1[C@H](Nc1cc(C#N)c2ncc(C#N)c(NCC(C)(C)C)c2c1)c1cn(CC2(C(F)(F)F)CC2)nn1` [Example 839, (S)-6-(((6-fluoro-2-methylpyridin-3-yl)(1-((1-(trifluoromethyl)cyclo-propyl)methyl)-1H-1,2,3-triazol-4-yl)methyl)amino)-4-(neopentylamino)quinoline-3,8-dicarbonitrile] returned an IC50 at Human Cot (IC50 HTRF) of 6 nM. Also, in the test on TNFα (setting [1]), the EC50 worked out at 94 nM.
Regarding `Cc1nc(F)ccc1[C@H](Nc1cc(C#N)c2ncc(C#N)c(NCC(C)(C)C(F)(F)F)c2c1)c1cn(C2(C(F)F)CC2)nn1` [Example 841], the half-maximal inhibitory concentration (IC50) on Human Cot (read-out: IC50 HTRF) came out at 2 nM. In addition, in the test on TNFα (setting [2]), the EC50 amounted to 41 nM.
For `CC(C)(CNc1c(C#N)cnc2c(C#N)cc(N[C@H](c3cn(C4(C(F)F)CC4)nn3)c3cccc4c(=O)[nH]ccc34)cc12)C(F)(F)F` [Example 842], in that order: 3 nM and 563 nM.
As for `Cc1nc(F)ccc1[C@H](Nc1cc(C#N)c2ncc(C#N)c(NCC(C)(C)C(F)(F)F)c2c1)c1cn(C2(C(F)(F)F)CC2)nn1` [Example 843, (S)-6-(((6-fluoro-2-methylpyridin-3-yl)(1-(1-(trifluoromethyl)cyclopropyl)-1H-1,2,3-triazol-4-yl)methyl)amino)-4-((3,3,3-trifluoro-2,2-dimethylpropyl)amino)-quinoline-3,8-dicarbonitrile], the IC50 against Human Cot (IC50 HTRF) came out at 4 nM. The EC50 in the test on TNFα (setting [1]) is 104 nM.
For `Cc1nc(F)ccc1[C@H](Nc1cc(C#N)c2ncc(C#N)c(NCC3C(C)(C)C3(C)C)c2c1)c1cn(C2(C(F)F)CC2)nn1` [Example 845, (S)-6-(((1-(1-(difluoromethyl)-cyclopropyl)-1H-1,2,3-triazol-4-yl)(6-fluoro-2-methylpyridin-3-yl)methyl)amino)-4-(((2,2,3,3-tetramethylcyclopropyl)methyl)-amino)quinoline-3,8-dicarbonitrile] the same measures were 20 nM and 1000 nM.
For `Cc1nc(F)ccc1[C@H](Nc1cc(C#N)c2ncc(C#N)c(NCC(C)(C)C(F)(F)F)c2c1)c1cn(C2(C)CC2)nn1` [Example 846, (S)-6-(((6-fluoro-2-methylpyridin-3-yl)(1-(1-methylcyclopropyl)-1H-1,2,3-triazol-4-yl)methyl)amino)-4-((3,3,3-trifluoro-2,2-dimethylpropyl)amino)quinoline-3,8-dicarbonitrile], in that order: 2 nM and 17 nM.
For `Cn1ccc2c([C@H](Nc3cc(C#N)c4ncc(C#N)c(NCC(C)(C)C)c4c3)c3cn(C4(C(F)F)CC4)nn3)cccc21` [Example 847, (S)-6-(((1-(1-(difluoromethyl)-cyclopropyl)-1H-1,2,3-triazol-4-yl)(1-methyl-1H-indol-4-yl)methyl)amino)-4-(neopentylamino)quinoline-3,8-dicarbonitrile], in that order: 31 nM and 296 nM.
On to `Cc1nc(F)ccc1[C@H](Nc1cc(C#N)c2ncc(C#N)c(NCC34CC(C3)C4)c2c1)c1cn(C2(C(F)(F)F)CC2)nn1` [Example 848, (S)-4-((bicyclo[1.1.1]pentan-1-ylmethyl)amino)-6-(((6-fluoro-2-methylpyridin-3-yl)(1-(1-(trifluoromethyl)cyclopropyl)-1H-1,2,3-triazol-4-yl)methyl)amino)quinoline-3,8-dicarbonitrile], for which, at Human Cot (IC50 HTRF), the concentration for half-maximal inhibition (IC50) stood at 31 nM. Besides, the 50% effective concentration (EC50) in the test on TNFα (setting [1]) came out at 247 nM.
For `Cc1nc(F)ccc1[C@H](Nc1cc(C#N)c2ncc(C#N)c(NCC34CC(C3)C4)c2c1)c1cn(C2(C(F)F)CC2)nn1` [Example 849, (S)-4-((bicyclo[1.1.1]pentan-1-ylmethyl)amino)-6-(((1-(1-(difluoromethyl)-cyclopropyl)-1H-1,2,3-triazol-4-yl)(6-fluoro-2-methylpyridin-3-yl)methyl)amino)quinoline-3,8-dicarbonitrile] the same measures were 16 nM and 261 nM.
For the compound `Cc1nc(F)ccc1[C@H](Nc1cc(C#N)c2ncc(C#N)c(NCC(C)(C)C)c2c1)c1cn(C(C)(C)C2CC2)nn1` [Example 850, (S)-6-(((1-{2-cyclopropylpropan-2-yl)-1H-1,2,3-triazol-4-yl)(6-fluoro-2-methylpyridin-3-yl)methyl)amino)-4-(neopentylamino)quinoline-3,8-dicarbonitrile], the midpoint of inhibition against Human Cot (IC50 HTRF), the IC50, lay at 6 nM. The EC50 in the test with TNFα (setting [1]) came out at 65 nM.
For `Cc1nc(F)ccc1[C@H](Nc1cc(C#N)c2ncc(C#N)c(NCC(C)(C)C)c2c1)c1cn(C2(C(C)C)CC2)nn1` [Example 851, (S)-6-(((6-fluoro-2-methylpyridin-3-yl)(1-(1-isopropylcyclopropyl)-1H-1,2,3-triazol-4-yl)methyl)amino)-4-(neopentylamino)quinoline-3,8-dicarbonitrile], in that order: 3 nM and 21 nM.
For `Cc1nc(F)ccc1[C@H](Nc1cc(C#N)c2ncc(C#N)c(NCC(C)(C)C)c2c1)c1cn(C2(C)COC2)nn1` [Example 852, (S)-6-(((6-fluoro-2-methylpyridin-3-yl)(1-(3-methyloxetan-3-yl)-1H-1,2,3-triazol-4-yl)methyl)amino)-4-(neopentylamino)quinoline-3,8-dicarbonitrile] the same measures were 2 nM and 58 nM.
For `Cn1ccc2c([C@H](Nc3cc(C#N)c4ncc(C#N)c(NCC(C)(C)C)c4c3)c3cn(C4(C)COC4)nn3)cccc2c1=O` [Example 853, (S)-6-(((2-methyl-1-oxo-1,2-dihydroisoquinolin-5-yl)(1-(3-methyloxetan-3-yl)-1H-1,2,3-triazol-4-yl)methyl)amino)-4-(neopentylamino)quinoline-3,8-dicarbonitrile], in that order: 1 nM and 98 nM.
`Cc1nc(F)ccc1[C@H](Nc1cc(C#N)c2ncc(C#N)c(NCC(C)(C)C)c2c1)c1nnn([C@@H](C)CF)c1F` [Example 854, 6-(((S)-(5-fluoro-1-((S)-1-fluoropropan-2-yl)-1H-1,2,3-triazol-4-yl)(6-fluoro-2-methylpyridin-3-yl)methyl)amino)-4-(neopentylamino)quinoline-3,8-dicarbonitrile] yielded an IC50 against Human Cot (IC50 HTRF) of 4 nM. In addition, in the test on TNFα (setting [1]), the EC50 stood at 17 nM.
For `CC(C)(C)CNc1c(C#N)cnc2c(C#N)cc(N[C@H](c3cn(C4CC4)nn3)c3csc4cnccc34)cc12` [Example 856, (S)-6-(((1-cyclopropyl-1H-1,2,3-triazol-4-yl)(thieno[2,3-c]pyridin-3-yl)methyl)amino)-4-(neopentylamino)quinoline-3,8-dicarbonitrile], in that order: 1 nM and 29 nM.
Consider `Cc1nc(F)ccc1[C@H](Nc1cc(C#N)c2ncc(C#N)c(NCC(C)(C)C)c2c1)c1nnn(C2CC2)c1C1CC1` [Example 857, (S)-6-(((l,5-dicyclopropyl-1H-1,2,3-triazol-4-yl)(6-fluoro-2-methylpyridin-3-yl)methyl)amino)-4-(neopentylamino)quinoline-3,8-dicarbonitrile], for which, on Human Cot (read-out: IC50 HTRF), the IC50 stood at 4 nM. Besides, the 50% effective concentration (EC50) with TNFα (setting [2]) stood at 180 nM.
In the case of `Cc1nc(F)ccc1[C@H](Nc1cc(C#N)c2ncc(C#N)c(NCC(C)(C)C(F)(F)F)c2c1)c1nnn([C@@H](C)CF)c1F` [Example 858, 6-(((S)-(5-fluoro-1-((S)-1-fluoropropan-2-yl)-1H-1,2,3-triazol-4-yl)(6-fluoro-2-methylpyridin-3-yl)methyl)amino)-4-((3,3,3-trifluoro-2,2-dimethylpropyl)amino)quinoline-3,8-dicarbonitrile], the midpoint of inhibition on Human Cot (IC50 HTRF), the IC50, lay at 7 nM. Also, the EC50 in the test with TNFα (setting [1]) was determined as 44 nM.
`Cc1nc(F)ccc1[C@H](Nc1cc(C#N)c2ncc(C#N)c(NCC(C)(C)C)c2c1)c1cn(C2(C(C)(C)C)CC2)nn1` [Example 860, (S)-6-(((1-(1-(tert-butyl)cyclopropyl)-1H-1,2,3-triazol-4-yl)(6-fluoro-2-methylpyridin-3-yl)methyl)amino)-4-(neopentylamino)quinoline-3,8-dicarbonitrile] gave an IC50 against Human Cot (IC50 HTRF) of 3 nM. In addition, the EC50 in the test on TNFα (setting [1]) was found to be 31 nM.
For `Cc1nc(F)ccc1[C@H](Nc1cc(C#N)c2ncc(C#N)c(NCC(C)(C)C(F)(F)F)c2c1)c1nnn(C23CC(C2)C3)c1F` [Example 861, (S)-6-(((1-(bicyclo[1.1.1]pentan-1-yl)-5-fluoro-1H-1,2,3-triazol-4-yl)(6-fluoro-2-methylpyridin-3-yl)methyl)amino)-4-((3,3,3-trifluoro-2,2-dimethylpropyl)amino)quinoline-3,8-dicarbonitrile], in that order: 7 nM and 40 nM.
For `Cc1nc(F)ccc1[C@H](Nc1cc(C#N)c2ncc(C#N)c(NCC(C)(C)C(F)(F)F)c2c1)c1nnn(C2(C)CC2)c1F` [Example 863, (S)-6-(((5-fluoro-1-(1-methylcyclopropyl)-1H-1,2,3-triazol-4-yl)(6-fluoro-2-methylpyridin-3-yl)methyl)amino)-4-((3,3,3-trifluoro-2,2-dimethylpropyl)amino)-quinoline-3,8-dicarbonitrile], in that order: 2 nM and 35 nM.
For `Cc1nc(F)ccc1[C@H](Nc1cc(C#N)c2ncc(C#N)c(NCC(C)(C)C)c2c1)c1cn(CC2(C)CC2)nn1` [Example 866, (S)-6-(((6-fluoro-2-methylpyridin-3-yl)(1-((1-methylcyclopropyl)methyl)-1H-1,2,3-triazol-4-yl)methyl)amino)-4-(neopentylamino)quinoline-3,8-dicarbonitrile], in that order: 2 nM and 18 nM.
